Experimental data reported in patent publication US7091038B2, “Ecdysone receptor-based inducible gene expression system” (RheoGene, Inc., priority 2000, dated 2006).

Experiments:
[1] = test system: VP16CfEcR; assay: Transactivation of reporter gene through switch 1.7 in 293 cells; type: cell-based, Choristoneura fumiferana; settings: switch 1.7, pEcRELuc
Description: (§1) Six ecdysone response elements (“EcRE”; SEQ ID NO: 55) from the hsp27 gene were placed upstream of the promoter and a luciferase gene (SEQ ID NO: 66). This switch most probably uses endogenous RXR.
(§2) The cells were harvested and reporter activity was assayed.
(§3) The same procedures described for CHO were followed for 293 cells except that the cells were plated in biocoated plates to avoid clumping.
(§4) Cells were harvested 24–48 hr after adding ligands. […] Twenty μl of lysate was assayed.

[2] = test system: GAL4USP + VP16CfEcR; assay: Transactivation of reporter gene through switch 1.5 in CHO cells; type: cell-based, Choristoneura fumiferana; settings: switch 1.5, pGAL4RELuc
Description: (§5) This construct was prepared in the same way as switch 1.3 except MmRXRDEF was replaced with CfUSPDEF (SEQ ID NO: 67).
as §2, §4

[3] = test system: CfEcRDEF:MmRXRDEF; assay: CfEcR-based yeast two-hybrid assay, LacZ reporter pSH118; type: cell-based, Choristoneura fumiferana; Mus musculus
Description: This construct results in a LexA:CfEcRDEF fusion that is expressed under the GAL1 promoter.
The D, E, and F domains from mouse (Mus musculus) RXR α (“MmRXRDEF”; SEQ ID NO: 22) were fused to a B42 transactivation domain (“B42AD”; SEQ ID NO: 53) and placed under the control of a GAL1 promoter (SEQ ID NO: 73) in pB42AD (CLONTECH). This construct results in a B42AD:MmRXR-DEF fusion that is expressed under the GAL 1 promoter.
A reporter plasmid comprising a β-galactosidase gene (LacZ; SEQ ID NO: 74) under the control of an 8XLexA operon response element (“8XlexAop”; SEQ ID NO: 75) operably linked to a minimal TATAA region from the GAL1 promoter (p8op-lacZ from CLONTECH) was used to monitor inducible gene expression.
Saccharomyces cerevisiae yeast cells (EGY48; CLONTECH) were used in these experiments. Cells were maintained in liquid culture media with the appropriate drop out amino acids. Standard methods for culture and maintenance of the cells were followed. […]
DNA constructs pSH118, CfEcRDEF, and MmRXRA/BCDEF, MmRXRDEF, or […] were transfected into yeast cells. […] A colony from each group of transformants was grown in the liquid culture in the presence of 0, 0.04, 0.2, 1, 5 and 25 μM GS™-E. The reporter activity was measured as described above 4 hours after adding ligand. Total RLUs were calculated and the numbers on the bars of FIG. 16 show maximum fold induction observed for that group (see FIGS. 16 and 17).
The best performing transformed yeast strain from the analysis above comprising CfEcRDEF:MmRXRDEF was used to determine the induction activity of three steroid ligands (20E, PonA, MurA) and four non-steroid ligands (GS™-E, RH2485, RH5992, RH5849) in this yeast-based format. The yeast cells were cultured in the presence of 0, 0.l, 1, 10, 50 and 100 μM ligands for four hours and the reporter activity was measured as described above. Total RLUs were calculated and the numbers on the top of the bars of FIG. 18 show the maximum fold induction for that group (see FIGS. 18 and 19).

[4] = test system: VP16CfEcR; assay: Transactivation of reporter gene through switch 1.7 in CV1 cells; type: cell-based, Choristoneura fumiferana; settings: switch 1.7, pEcRELuc
Description: as §1, §2
The cells were plated when they reached 50% confluency.
The same procedures described for NIH3T3 cells were followed for CV1 cells
as §4

[5] = test system: GAL4USP + VP16CfEcR; assay: Transactivation of reporter gene through switch 1.5 in 293 cells; type: cell-based, Choristoneura fumiferana; settings: switch 1.5, pGAL4RELuc
Description: as §5, §2, §3, §4

[6] = test system: CfVgRXR + MmRXR; assay: Transactivation of reporter gene through switch 1.9 in 293 cells; type: cell-based, Choristoneura fumiferana; Mus musculus; settings: switch 1.9, pIND(SP1)LacZ
Description: This example was prepared in the same way as switch 1.8 except DmEcR was replaced with a truncated CfEcR comprising a partial A/B domain and the complete CDEF domains [SEQ ID NO: 70 (polynucleotide) and SEQ ID NO: 71 (polypeptide)].
as §2, §3, §4

[7] = test system: GAL4CfEcRVP16; assay: Transactivation of reporter gene through switch 1.6 in 293 cells; type: cell-based, Choristoneura fumiferana; settings: switch 1.6, pGAL4RELuc
Description: This construct was prepared so that both the GAL4 DNABD and the VP16AD were placed on the same molecule. GAL4DNABD (SEQ ID NO: 43) and VP16AD (SEQ ID NO: 49) were fused to CfEcRDEF (SEQ ID NO: 3) at N-and C-termini respectively.
as §2, §3, §4

CCc1c(OC)cccc1C(=O)NN(C(=O)c1cc(C)cc(C)c1)C(C)(C)C [N-(2-ethyl-3-methoxybenzoyl)-N′-(3,5-dimethylbenzoyl)-N′-t-butylhydrazine]
Mean Fold Activation Through N-(2-ethyl-3-methoxybenzoyl)-N′-(3,5-dimethylbenzoyl)-N′-t-butylhydrazine [1]: 2 fold | Mean Fold Activation with 50 μM N-(2-ethyl-3-methoxybenzoyl)-N′-(3,5-dimethylbenzoyl)-N′-t-butylhydrazine [2]: 2 fold | Fold induction ([3]; yeast cells, CfEcRDEF/MmRXRDEF, 0–25 μM, 4 hours after adding ligand): approximately 1800 fold | Induction of gene expression (relative performance of ligands) ([3]; yeast strain comprising CfEcRDEF:MmRXRDEF, 0–100 μM ligand for four hours, FIGS. 18 and 19): induce gene expression better than any other ligand tested | Mean Fold Activation Through N-(2-ethyl-3-methoxybenzoyl)-N′-(3,5-dimethylbenzoyl)-N′-t-butylhydrazine [4]: 1 fold | Mean Fold Activation Through N-(2-ethyl-3-methoxybenzoyl)-N′-(3,5-dimethylbenzoyl)-N′-t-butylhydrazine [5]: 2 fold | Mean Fold Activation Through N-(2-ethyl-3-methoxybenzoyl)-N′-(3,5-dimethylbenzoyl)-N′-t-butylhydrazine [6]: 12 fold | Mean Fold Activation Through N-(2-ethyl-3-methoxybenzoyl)-N′-(3,5-dimethylbenzoyl)-N′-t-butylhydrazine [7]: 3 fold
